# US20120302636A1, “METHOD OF TREATING A DISORDER ASSOCIATED WITH MTP” (priority 2009, published 2012)
# Key:
# [1] = 3-month oral repeated dose toxicity study in dogs; format: in vivo; settings: 25 mg/kg
# [2] = system: serum lipid levels; assay: Example 2: serum lipid levels; format: in vivo, human
# Description: Each tablet contained 5 mg (BID), 10 mg (QD), 20 mg (QD), or 30 mg (QD).
# [3] = Example 4: 8-week study in hyperlipidemia, safety; format: in vivo, human
# Description: One hundred five Japanese patients with hyperlipidemia (LDL-C between 140 and 220 mg/dL; TG≦400 mg/dL) participated in the study. […] For the efficacy analysis, 95 subjects were observed (0.5 mg BID: 25 subjects, 1 mg BID: 24 subjects, 2 mg BID: 22 subjects, 4 mg BID: 24 subjects).
# [4] = system: serum lipid levels; assay: Example 7: serum lipid levels; format: in vivo, human
# Description: Postprandial levels of lipid parameters after administration of the compound of formula (I) were evaluated using the change from preceding timepoint. […] Intraday changes and changes from pretreatment baseline also indicate that the absorption of TG, VLDL-TG, and chylomicron-TG were delayed compared to placebo. This delayed absorption is consistent with a previous pharmacology study in healthy male Japanese subjects. The postprandial results were interpreted with caution as the delay in absorption can impact the calculation regarding the magnitude of the postprandial change in triglycerides. However, the suppression of the expected increases in postprandial TG, VLDL-TG, and chylomicron-TG, which is indicative of MTP inhibition, clearly supports the mechanism of action of the compound of formula (I). The VLDL-TG changes observed in this study are consistent with previous studies (Examples 2 and 6) where the compound of formula (I) was administered for up to 14 days in healthy or hypertriglyceridemic Caucasian and Japanese male subjects. In general, the compound of formula (I) levels were also low or non-quantifiable in these studies. […] Therefore, the compound of formula (I) is not believed to directly affect the liver.
# [5] = Example 9: safety and tolerability; format: in vivo, human
# Description: The study enrolled 16 obese male subjects (18-65 years of age (inclusive), with a body mass index (BMI) >30.0 kg/m^2 and <40.0 kg/m^2) who participated in two treatment periods. During Period 1, 8 subjects were randomized to receive 3.5 mg of the compound of formula (I), and 8 subjects were randomized to receive placebo. The compound of formula (I) or placebo was administered twice daily (BID), 30 minutes after the start of breakfast and dinner, for 10 days. All subjects were discharged from the clinic at the end of Period 1 for a 9±2 day discharge period. Subjects then returned for treatment during Period 2, in which (i) the group previously receiving the compound of formula (I) now received placebo, and (ii) the group previously receiving placebo now received the compound of formula (I), in accordance with the protocol described above.
# [6] = Example 1: repeated oral dose study of capsules, safety
# Description: The subjects were divided into two dosing groups, and within each dosing group, the subjects were divided as follows: 6 subjects received the compound of formula (1) and 3 subjects received placebo. […] Subjects were in a fed condition prior to administration of each capsule.
# Each active capsule contained a filling solution and a gelatin solution. The filling solution comprised the compound of formula (I) (5 mg), propylene glycol esters of fatty acids, and dehydrated ethanol. The gelatin solution comprised purified water, gelatin, and anhydrized liquid sorbitol. The filling solution and gelatin solution were prepared individually and combined to form a soft capsule. The placebo capsules were prepared in a similar manner except that the filling solution contained only propylene glycol esters of fatty acids and dehydrated ethanol.
compound,measurement,setting,value
"CCOC(=O)C(COC(=O)Cc1ccc(NC(=O)c2ccccc2-c2ccc(C(F)(F)F)cc2)c(C(=O)N(C)C)c1)(C(=O)OCC)c1ccccc1 [compound of formula (I), diethyl 2-((2-(3-(dimethylcarbamoyl)-4-(4′-(trifiuoromethyl)biphenyl-2-ylcarboxamido)phenyl)acetoxy)methyl)-2-phenyl malonate]",toxicity findings,[1]; 3-month safety study,no toxicity findings
same,vitamins D and E,[1]; 3 months oral,decreased or tended to decrease
same,"postprandial elevations for TG, HDL-TG, LDL-TG, Midband-TG, VLDL-TG, CM-TG, and ApoB48",[2]; active group,suppressed
same,"TC, HDL-C, LDL-C, and ApoB values",[2]; by and after Day 7,decreased
same,incidence of moderate diarrhea,[3]; 0.5 mg BID,8.0%
same,number of adverse events,[3]; 0.5 mg BID,20
same,number of moderate diarrhea events,[3]; 0.5 mg BID,2
same,subjects with adverse events (incidence),[3]; 0.5 mg BID,44.0%
same,incidence of diarrhea,[3]; 1 mg BID,15.9%
same,incidence of moderate diarrhea,[3]; 1 mg BID,0.0%
same,number of adverse events,[3]; 1 mg BID,60
same,number of diarrhea events,[3]; 1 mg BID,6
same,number of moderate diarrhea events,[3]; 1 mg BID,0
same,subjects with adverse events (incidence),[3]; 1 mg BID,75.0%
same,incidence of diarrhea,[3]; 2 mg BID,24.0%
same,incidence of moderate diarrhea,[3]; 2 mg BID,12.0%
same,number of adverse events,[3]; 2 mg BID,51
same,number of diarrhea events,[3]; 2 mg BID,12
same,number of moderate diarrhea events,[3]; 2 mg BID,4
same,subjects with adverse events (incidence),[3]; 2 mg BID,80.0%
same,incidence of diarrhea,[3]; 4 mg BID,40.7%
same,incidence of moderate diarrhea,[3]; 4 mg BID,29.6%
same,number of adverse events,[3]; 4 mg BID,82
same,number of diarrhea events,[3]; 4 mg BID,21
same,number of moderate diarrhea events,[3]; 4 mg BID,13
same,subjects with adverse events (incidence),[3]; 4 mg BID,85.2%
same,death or serious adverse events,"[3]; 0.5-4 mg BID capsules, 8 weeks",neither death nor other serious adverse events occurred
same,events of gastrointestinal disorders,[3]; 105 subjects,117
same,events of infections and infestations,[3]; 105 subjects,11
same,events of investigations,[3]; 105 subjects,49
same,events of metabolism and nutrition disorders,[3]; 105 subjects,7
same,"events of musculoskeletal, and connective tissue disorders",[3]; 105 subjects,7
same,incidence of gastrointestinal disorders (SOC),[3]; 105 subjects,47.6%
same,incidence of infections and infestations (SOC),[3]; 105 subjects,9.5%
same,incidence of investigations (SOC),[3]; 105 subjects,31.4%
same,incidence of metabolism and nutrition disorders (SOC),[3]; 105 subjects,6.7%
same,incidence of moderate adverse events,[3]; 105 subjects,18.1%
same,"incidence of musculoskeletal, and connective tissue disorders (SOC)",[3]; 105 subjects,6.7%
same,"laboratory abnormality ALT, subjects",[3]; 105 subjects,5.7%
same,"laboratory abnormality CPK, subjects",[3]; 105 subjects,6.7%
same,"laboratory abnormality CRP, subjects",[3]; 105 subjects,3.8%
same,"laboratory abnormality IP, subjects",[3]; 105 subjects,2.9%
same,"laboratory abnormality γ-GTP, subjects",[3]; 105 subjects,3.8%
same,number of moderate adverse events,[3]; 105 subjects,Twenty-six
same,number of adverse events,[3]; all 105 subjects,213
same,subjects with adverse events (incidence),[3]; all 105 subjects,71.45%
same,"fat-soluble vitamins (vitamin A, 25-OH vitamin D, and vitamin E)",[3]; in vivo,no clinically significant changes
same,subjects withdrawn from the study treatment because of adverse events,[3]; of 105 subjects,four
same,"postprandial estimates for TG, VLDL-TG, and chylomicron-TG",[4]; following breakfast and dinner,substantially lower when compared with placebo
same,decrease in HDL-C levels,[4]; in vivo,"not as pronounced as LDL-C, nor was it statistically significant"
same,"pretreatment baseline adjusted values of TC, LDL-C, LDL-TG, ApoB, and phospholipids",[4]; in vivo,significant reduction
same,deaths or serious adverse events,"[5]; 3.5 mg BID, 10 days",no deaths or serious adverse events
same,subjects with at least one treatment-emergent adverse event,"[5]; 3.5 mg BID, 10 days",53.3%
same,safety and tolerability,"[5]; 3.5 mg BID, 10 days, fed conditions",safe and well-tolerated
same,"hematology, biochemistry, urinalysis, vital sign (including weight), ECG changes from baseline",[5]; in vivo,No clinically meaningful mean changes
same,number of adverse events,[6]; 5 mg group,12
same,subjects with adverse events (incidence),[6]; 5 mg group,83%
same,vitamins A and E,[6]; 15 mg BID group,Decreased
same,number of adverse events,[6]; 15 mg group,32
same,subjects with adverse events (incidence),[6]; 15 mg group,100%
same,subjects with diarrhea,"[6]; 15 mg group, of 6 subjects",6 subjects
same,death or serious adverse events,"[6]; 5 or 15 mg BID after meals, 14 days, capsules",neither death nor serious adverse events were reported
same,incidence of ALT increased,[6]; active group,17%
same,incidence of abdominal discomfort,[6]; active group,25%
same,incidence of anorexia,[6]; active group,42%
same,incidence of diarrhea,[6]; active group,67%
same,incidence of gastrointestinal disorders (SOC),[6]; active group,75%
same,incidence of investigations (SOC),[6]; active group,33%
same,incidence of metabolism and nutrition disorders (SOC),[6]; active group,42%
same,incidence of moderate abdominal discomfort,[6]; active group,8%
same,incidence of moderate diarrhea,[6]; active group,58%
same,incidence of moderate feeling queasy,[6]; active group,8%
same,incidence of moderate stomach discomfort,[6]; active group,8%
same,incidence of stomach discomfort,[6]; active group,58%
same,subjects with adverse events (incidence),"[6]; active group (5 and 15 mg BID), 12 subjects",92%
same,number of adverse events,"[6]; active group, 12 subjects",44
same,tolerable dosage,[6]; long-term treatment in outpatients,5 mg BID
same,doses at which diarrhea occurred,[6]; repeated BID administration,≥ 5 mg
